# In US20180256611A1, “BISPHOSPHONATES FOR INCREASING THE TYPE 2 CHARACTER OF A MODIC CHANGE” (ANTECIP BIOVENTURES II LLC, priority 2017, published 2018):
# Several values for one entry are separate records, joined by “and”; a condition that tells them apart may be missing. Identical values can stand only once.
# Test system: Modic changes (MC) on MRI in chronic LBP patients
# Test: MRI study of size and type of Modic changes over one year after a single intravenous infusion of 5 mg zoledronic acid vs placebo
# Format: in vivo, human
# Protocol: This study was designed to compare changes in size and type of MC over one year after a single intravenous infusion of 5 mg zoledronic acid (ZA) vs placebo among chronic LBP patients with MC on MRI, and evaluate whether MRI changes correlate with improvement in clinical symptoms.
# The study population consisted of patients with chronic LBP and MC on MRI. Inclusion criteria were LBP for at least three months, LBP intensity of at least six on a 10-cm Visual Analog Scale (VAS) or Oswestry Disability Index (ODI) of at least 30%, and a MC on MRI performed within at most six months prior to enrollment. The exclusion criteria included renal impairment, hypocalcaemia, hypersensitivity to bisphosphonates or the infusion, the presence of red flags, nerve root entrapment, willingness for early retirement, and childbearing potential.
# All patients (N=20 in both intervention groups) had MRI at baseline (0.23-1.5 T) and one year (1.5-3 T). We evaluated the level, type, volume (cm^3) and proportion of M1 and M2 of all MC. MC were classified to pure M1 (M1 (100%)), mixed M1/2 with predominating M1 (M1/2 (65:35%)) or predominating M2 (M1/2 (35:65%)), and pure M2 (M2 (100%)). The first two were considered M1-dominant, and the latter two M2-dominant. Volumes of M1 and M2 were calculated separately for the primary MC, assumed to cause the symptoms, and for other MC. Cross tabulations were used to describe the distributions of MC type in ZA and placebo groups at baseline and one year. The treatment differences in M1 and M2 volumes, from baseline to one year, were analyzed using ANCOVA with adjustments for age, sex, body mass index and smoking. The correlations of MRI changes with changes in intensity of LBP (10-cm Visual Analog Scale) and Oswestry Disability Index (ODI) were analyzed using Pearson correlations.
# Patients were randomized to receive a single intravenous infusion of 5 mg ZA in 100 ml saline (n=20) or 100 ml saline as placebo (n=20) over a 15-minute period. Before administration of the infusion, all patients received oral ibuprofen 600 mg or paracetamol 1 g to prevent acute phase reactions, and 100 000 units of Vitamin D (Vigantol®) to prevent hypocalcaemia. Patients, the principal investigator, performing the screening and follow-up assessments, and the radiologist evaluating the MRI scans were blinded to the treatment allocation.
# Baseline MRIs were obtained with five 1.5 T units and a 0.23 T unit. There was some variation in imaging protocols due to the multiple units used. Protocols were of clinical imaging purpose established to spine imaging. The imaging parameters of sagittal T1-weighted (T1W) turbo spin-echo (TSE) or fast spin-echo (FSE) sequences with fluid attenuation inversion recovery (FLAIR) were repetition time (TR) 1800-2270 ms/inversion time (TI) 860 ms/echo time (TE) 9-29 ms (N=16) and without FLAIR: TR 326-793 ms/TE 8-18 ms (N=23). The imaging parameters of sagittal T2-weighted (T2W) TSE/FSE sequences were TR 3000-4500 ms/TE 105-130 ms (N=40). The imaging parameters of short tau inversion recovery sequences (STIR) were e.g. TR 3400/TI 150/TE 70. Spacing, including slice thickness and slice gap, of the image slices was 4.4-6.2 mm in all sequences.
# At the one-year follow-up, MRIs were obtained with two 1.5 T units and a 3 T unit. The imaging parameters of sagittal T1-weighted TSE or FSE sequences with FLAIR were TR 2047-2270 ms/TI 860-900 ms/TE 9-29 ms (N=38) and without FLAIR: TR 540-587/TE 12-24 ms (N=2). The imaging parameters of sagittal T2-weighted TSE or FSE sequences were TR 2796-3500 ms/TE 101-123 ms (N=40). Spacing was 3.6-5 mm in all sequences.
# [1] = ZA vs placebo, change to follow-up
structure (smiles),measurement,setting,value
"O=P(O)(O)C(O)(Cn1ccnc1)P(=O)(O)O [ZA, zoledronic acid]","Total volume of other than the primary Modic lesion, difference (95% CI), unadjusted",ZA vs placebo,"−0.21 (−1.28, 0.86) cm^3"
same,"Volume of M1 of other than the primary Modic lesion, difference (95% CI), unadjusted",ZA vs placebo,"−0.17 (−2.12, 1.78) cm^3"
same,"Volume of M2 of other than the primary Modic lesion, difference (95% CI), unadjusted",ZA vs placebo,"−0.04 (−1.99, 1.90) cm^3"
same,"Total volume of the primary Modic lesion, difference (95% CI), adjusted for age, sex, BMI and smoking",[1],"−1.64 (−4.03, 0.76) cm^3"
same,"Total volume of the primary Modic lesion, difference (95% CI), age-adjusted analysis",[1],"−1.46 (−3.50, 0.59) cm^3"
same,"Volume of M1 of the primary Modic lesion, difference (95% CI), age-adjusted analysis",[1],"−1.92 (−4.65, 0.82) cm^3"
same,"Volume of M2 of the primary Modic lesion, difference (95% CI), adjusted for age, sex, BMI and smoking",[1],"0.12 cm^3 and 0.12 (−2.50, 2.75) cm^3"
same,"Volume of M2 of the primary Modic lesion, difference (95% CI), age-adjusted analysis",[1],"0.46 (−1.90, 2.82) cm^3"
same,"Proportion of M1 volume of the total volume, other than primary MC","at baseline, placebo 22%",13%
same,"Proportion of M1 volume of the total volume, other than primary MC","at one year, placebo 36%",24%
same,"Total volume of other than the primary Modic lesion, mean (SD)",baseline,7.53 (7.53) cm^3
same,"Total volume of the primary Modic lesion, mean (SD)",baseline,12.0 cm^3 and 11.99 (5.14) cm^3
same,"Volume of M2 of other than the primary Modic lesion, mean (SD)",baseline,6.52 (7.63) cm^3
same,"Volume of M2 of the primary Modic lesion, mean (SD)",baseline,4.54 (3.90) cm^3
same,"Total volume of other than the primary Modic lesion, mean (SD) change",baseline to follow-up,0.39 (1.02) cm^3
same,"Volume of M1 of other than the primary Modic lesion, mean (SD) change",baseline to follow-up,0.86 (2.19) cm^3
same,"Volume of M2 of other than the primary Modic lesion, mean (SD) change",baseline to follow-up,−0.47 (2.44) cm^3
same,Total volume of other than primary MC increased by,"baseline to one year, placebo 11%",5%
same,M2 volume of primary MC increased by,"baseline to one year, placebo 34%",56%
same,M1 volume of primary MC decreased by,"baseline to one year, placebo increased by 18%",13%
same,"Total volume of the primary Modic lesion, mean (SD) change",baseline to one-year follow-up,1.6 cm^3 and 1.58 (2.18) cm^3
same,"Volume of M1 of the primary Modic lesion, mean (SD) change",baseline to one-year follow-up,−0.96 cm^3 and −0.96 (4.33) cm^3
same,"Volume of M2 of the primary Modic lesion, mean (SD) change",baseline to one-year follow-up,2.54 cm^3 and 2.54 (2.94) cm^3
same,"Volume of M1 of other than the primary Modic lesion, mean (SD)","baseline, n=17",1.02 (1.90) cm^3
same,"Volume of M1 of the primary Modic lesion, mean (SD)","baseline, n=20",7.44 (4.47) cm^3
same,"Total volume of other than the primary Modic lesion, mean (SD)",follow-up,7.92 (7.31) cm^3
same,"Volume of M1 of other than the primary Modic lesion, mean (SD)",follow-up,1.88 (2.47) cm^3
same,"Volume of M2 of other than the primary Modic lesion, mean (SD)",follow-up,6.05 (6.43) cm^3
same,"Total volume of the primary Modic lesion, mean (SD)",follow-up (one year),13.57 (5.42) cm^3
same,"Volume of M1 of the primary Modic lesion, mean (SD)",follow-up (one year),6.48 (5.25) cm^3
same,"Volume of M2 of the primary Modic lesion, mean (SD)",follow-up (one year),7.09 (4.50) cm^3
same,M1-dominant primary MC converted to M2-dominant,"one-year follow-up, placebo 15% (p=0.087)",45%
